Patent US6603046B1, “Bis-aromatic a,β-unsaturated ketones” (Lica Pharmaceuticals A/S, priority 1992, dated 2003)
Read-outs that look alike come from different tables or passages of the source.

Experiments:
human lymphocytes = experiment: Lymphocyte Proliferation Assay, 3H-thymidine incorporation (Example 13); conditions: for inhibition at 0.5 µg/mL / inhibition at 1 µg/mL / inhibition at 5 µg/mL / inhibition at 10 µg/mL: Homo sapiens, Lymphocyte
L. major promastigotes = L. major promastigotes from 4-days cultures, 3H-thymidine uptake (Examples 5, 14); format: cell-based, Leishmania major; conditions: for inhibition at 10 µg/mL / inhibition at 0.5 µg/mL / inhibition at 1 µg/mL / inhibition at 5 µg/mL / inhibition at 20 µg/mL: Leishmania major; for inhibition at 0.5 µg/mL: 0.5 μg/ml; for inhibition at 1 µg/mL: 1 μg/ml; for inhibition at 5 µg/mL: 5 μg/ml; for inhibition at 20 µg/mL: 20 μg/ml
Method: Parasite cultures. The same parasite culture as described in Example 4. Promastigotes were harvested on day 4 of the culture and used for the parasiticidal assay.
Effect on promastigotes. […] Following incubation, […] of ^3H-thymidine was added to each well and further incubated for 18 hrs. Promastigotes were then harvested on filter paper by means of a cell harvester (Skatron, Lierbyen, Norway), extensively washed with distilled water and counted in a scintillation counter (Minaxi Ti-Carb 4000, United Technologies, Packard, USA).
L. major promastigotes. The L. major promastigotes were prepared as described in Example 4 and harvested after 4 days.

[1] = read-out: inhibition of lymphocytes (lower figure)
[2] = Table 14.1, read-out: percentage inhibition of promastigotes (upper figure)
[3] = Table 14.1, 10 μg/ml, read-out: percentage inhibition of promastigotes (upper figure)
[4] = read-out: percentage inhibition of 3H-thymidine uptake (mean ± SEM), Table 5.1
[5] = read-out: percentage inhibition of 3H-thymidine uptake (mean ± SEM), Table 5.1, 10 μg/ml

SMILES	inhibition at 0.5 µg/mL (human lymphocytes; [1]) [%]	inhibition at 1 µg/mL (human lymphocytes; [1]) [%]	inhibition at 5 µg/mL (human lymphocytes; [1]) [%]	inhibition at 10 µg/mL (human lymphocytes; read-out: inhibition of lymphocytes (lower figure), response to PHA, 10 μg/ml) [%]	inhibition at 10 µg/mL (L. major promastigotes; read-out: percentage inhibition of promastigotes (upper figure)) [%]	inhibition at 0.5 µg/mL (L. major promastigotes; [2]) [%]	inhibition at 1 µg/mL (L. major promastigotes; [2]) [%]	inhibition at 5 µg/mL (L. major promastigotes; [2]) [%]	inhibition at 10 µg/mL (human lymphocytes; [1]) [%]	inhibition at 10 µg/mL (L. major promastigotes; [3]) [%]	inhibition at 1 µg/mL (L. major promastigotes; [4]) [%]	inhibition at 5 µg/mL (L. major promastigotes; [4]) [%]	inhibition at 10 µg/mL (L. major promastigotes; [5]) [%]	inhibition at 20 µg/mL (L. major promastigotes; [4]) [%]	inhibition at 0.5 µg/mL (L. major promastigotes; [4]) [%]	activity against Leishmania parasites in vitro (L. major promastigotes)	toxicity against human lymphocytes (human lymphocytes)
O=C(/C=C/c1ccc(O)cc1)c1ccc(O)cc1 [drawing 63]	0	0	96.3	94.8	53.1 ± 7.9	22.5 ± 10	26.6 ± 7.6	34.6 ± 10.5	–	–	–	–	–	–	–	–	–
COc1ccc(CCC(=O)c2ccco2)c(OC)c1	3.6	11.7	33.6	–	–	9.5	9.4	55.1	41.9	89.6	–	–	–	–	–	–	–
O=C(/C=C/c1ccc(O)cc1)c1ccccc1 [drawing 54]	–	–	–	–	–	–	–	–	–	–	39.1	70.1	84.5	94.3 ± 1.6	–	–	–
O=C(/C=C/c1ccccc1)c1ccccc1 [drawing 60]	2	7.3	91	–	–	21.6	34.8	91.9	100	97.3	–	–	–	–	–	–	–
COc1cc(OC)c(/C=C/C(=O)c2ccc(O)cc2)c(OC)c1	0	0	48	–	–	25 ± 9.5	25.6 ± 10.9	23.6 ± 10.9	63.6	25.1 ± 17.3	–	–	–	–	–	–	–
COc1cccc(/C=C/C(=O)c2ccc(O)cc2)c1OC [drawing 69]	2	7.5	89.3	–	–	32	43	95.2 ± 4.7	99.8	97.1 ± 3.5	–	–	–	–	–	–	–
COc1cc(/C=C/C(=O)c2ccc(O)cc2O)ccc1O [drawing 59]	–	–	–	–	–	–	–	–	–	–	14.3	66.7	83.3 ± 4.6	–	7.8	–	–
C=CCOc1ccc(C(=O)/C=C/c2cc(OC)c(OC)cc2OC)cc1	0	0	0	–	–	24 ± 12	23.8 ± 12.5	23.2 ± 12.8	27.6	28.8 ± 16	–	–	–	–	–	–	–
COCCOCOc1ccc(C(=O)/C=C/c2ccc(OCC=C(C)C)cc2OC)cc1	0	8.1	14.1	–	–	11.5	14	33.1	28.3	61.5	–	–	–	–	–	–	–
O=C(/C=C/c1ccccc1)c1ccc(O)cc1 [drawing 53]	–	–	–	–	–	–	–	–	–	–	35.9	70.8	82.8	91.9 ± 2.1	–	–	–
COc1ccc(/C=C/C(=O)c2ccc(O)cc2)c(OC)c1 [drawing 55]	–	–	–	–	–	–	–	–	–	–	27.3	61.8	91.9 ± 4.6	–	19.4	–	–
COc1ccc(/C=C/C(=O)c2ccccc2OCC=C(C)C)c(OC)c1	7.1	6.6	8.7	–	–	4.3	1.8	49	35.9	83.2	–	–	–	–	–	–	–
COc1ccc(CCC(=O)c2ccc(O)cc2)c(OC)c1 [drawing 92]	0	0	3	–	–	8.5 ± 1.8	5.6 ± 5.4	22.5 ± 9.7	1.5	31.3 ± 16	–	–	–	–	–	–	–
COc1ccc(CCC(=O)c2ccc[nH]2)c(OC)c1	10	2	20	–	–	0.6	9.4	18.5	41.9	40.6	–	–	–	–	–	–	–
COc1ccc(C(=O)/C=C/c2ccccc2)cc1 [drawing 66]	2	7.5	91	–	–	20.6	26.3	68.1	100	85.5	–	–	–	–	–	–	–
O=C(/C=C/c1ccc(O)c(O)c1)c1ccc(O)cc1O	0	1	12	–	–	7	8	4.2	51	10.6	–	–	–	–	–	–	–

SMILES	inhibition at 0.5 µg/mL (human lymphocytes; [1]) [%]	inhibition at 1 µg/mL (human lymphocytes; [1]) [%]	inhibition at 5 µg/mL (human lymphocytes; [1]) [%]	inhibition at 10 µg/mL (human lymphocytes; read-out: inhibition of lymphocytes (lower figure), response to PHA, 10 μg/ml) [%]	inhibition at 10 µg/mL (L. major promastigotes; read-out: percentage inhibition of promastigotes (upper figure)) [%]	inhibition at 0.5 µg/mL (L. major promastigotes; [2]) [%]	inhibition at 1 µg/mL (L. major promastigotes; [2]) [%]	inhibition at 5 µg/mL (L. major promastigotes; [2]) [%]	inhibition at 10 µg/mL (human lymphocytes; [1]) [%]	inhibition at 10 µg/mL (L. major promastigotes; [3]) [%]	inhibition at 1 µg/mL (L. major promastigotes; [4]) [%]	inhibition at 5 µg/mL (L. major promastigotes; [4]) [%]	inhibition at 10 µg/mL (L. major promastigotes; [5]) [%]	inhibition at 20 µg/mL (L. major promastigotes; [4]) [%]	inhibition at 0.5 µg/mL (L. major promastigotes; [4]) [%]	activity against Leishmania parasites in vitro (L. major promastigotes)	toxicity against human lymphocytes (human lymphocytes)
CC(C)=CCc1cc(/C=C/C(=O)c2ccc(O)c(CC=C(C)C)c2O)ccc1O [drawing 98]	–	–	–	–	–	–	12	28	–	91	–	–	–	–	–	–	–
C=CCOc1ccc(C(=O)/C=C/c2ccccc2OC)cc1	0	0	1.1	–	–	20.9 ± 7.7	25.8 ± 15.3	52.8 ± 19.1	80.1	76.6 ± 22.4	–	–	–	–	–	–	–
COc1ccc(/C=C/C(=O)c2ccc(OCOC(=O)C(C)(C)C)cc2)c(OC)c1	7.1	8.2	9	–	–	3.9	0	7.9	32.7	28.6	–	–	–	–	–	–	–
COCOc1ccc(C(=O)/C=C/c2ccc(OC)cc2OC)cc1 [drawing 90]	0	5.1	11.2	–	–	22.8 ± 9.7	27.6 ± 10.9	50.2 ± 13	15.4	65.4 ± 16.1	–	–	–	–	–	–	–
COc1ccc(CCC(=O)c2ccc(O)cc2)c(OC)c1 [3-(2,4-dimethoxyphenyl)-1-(4-hydroxyphenyl)propan-1-on, reference compound]	–	–	–	–	–	–	–	–	–	–	–	–	–	–	–	very low activity	–
COCCOCOc1ccc(C(=O)/C=C/c2ccc(OC)cc2OC)cc1	–	–	–	–	–	–	–	–	–	–	14	31	60.5 ± 5.6	–	20	–	–
C=CCOc1ccc(C(=O)/C=C/c2ccc(OC)cc2OC)cc1 [drawing 56]	–	–	–	–	–	–	–	–	–	–	17.5	64.5	84.3 ± 3.5	–	7.5	–	–
COc1cc(/C=C/C(=O)c2ccc(O)cc2O)ccc1O [drawing 74]	2	6	9.5	–	–	7.8	14.3	56.7	38.3	83.3	–	–	–	–	–	–	–
COCOc1ccc(C(=O)/C=C/c2ccc(OC)cc2OC)cc1 [drawing 58]	–	–	–	–	–	–	–	–	–	–	18.1	56.3	65 ± 5.9	–	8.5	–	–
CC(C)=CCc1c(O)ccc(C(=O)/C=C/c2cc(O)c3c(c2)C=CC(C)(C)O3)c1O [drawing 97]	–	–	–	–	–	–	–	–	–	18	–	–	–	–	–	–	–
C=CCOc1ccc(C(=O)/C=C/c2cc(OC)c(OC)c(OC)c2)cc1	4	4	38	–	–	11 to 45	16 to 47	44 to 60	98	86 to 91	–	–	–	–	–	–	–
COc1ccc(/C=C/C(=O)c2ccc(OC)cc2)cc1	0	0	0	–	–	11.7 ± 9.2	8.3 ± 4.6	35.6 ± 23.4	0	51.8 ± 15.8	–	–	–	–	–	–	–
O=C(c1ccccc1)C1OC1c1ccccc1 (centres unmarked)	0	0	2	–	–	28.4 ± 13	33.4 ± 15.4	73.2 ± 17.8	85.4	88 ± 7.5	–	–	–	–	–	–	–
O=C(/C=C/c1ccccc1)c1ccc(F)cc1	–	–	–	–	–	–	–	88	–	99	–	–	–	–	–	–	–
C=CCOc1ccc(C(=O)/C=C/c2c(OC)cc(OC)cc2OC)cc1	8	12	24	–	–	25 to 44	15 to 46	14 to 50	48	22 to 49	–	–	–	–	–	–	–
O=C(/C=C/c1ccccc1)c1ccccc1 [chalcone, reference compound]	–	–	–	–	–	–	–	–	–	–	–	–	–	–	–	very high activity	extremely high toxicity
